Measurements as given in US4110327A, “2,3 Diketo-piperazinocarbonylamino alkanoic acids and derivatives” (Toyama Chemical Co., Ltd., priority 1974, dated 1978).
Converted amounts (≈) assume the structure as drawn.

Tests used:
Escherichia coli NIHJ = assay: MIC against standard strain, plate method; assay type: cell-based; details: unit assumed
Summary of the method: (§1)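 MIC values come from the plate method on heart infusion agar at pH 7.4, with each plate receiving 10^4 cells from a 10^6 cells/ml suspension.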

Proteus vulgaris 3027 = assay: MIC against standard strain, plate method; assay type: cell-based; details: Proteus vulgaris 3027, standard strain; unit assumed
Summary of the method: as §1

[1] = test system: Staphylococcus aureus 209p; assay: MIC against standard strain, plate method; assay type: cell-based; details: unit assumed
Summary of the method: as §1

Staphylococcus aureus = assay: MIC against clinical isolates; assay type: cell-based; details: unit assumed
Escherichia coli = assay: MIC against clinical isolates; assay type: cell-based; details: unit assumed
Pseudomonas aeruginosa = assay: MIC against clinical isolates; assay type: cell-based; details: unit assumed
Klebsiella pneumoniae [2] = assay: MIC against clinical isolates; assay type: cell-based; details: unit assumed
Shigella flexneri = assay: MIC against clinical isolates; assay type: cell-based; details: unit assumed
Procedure: (§2) The minimum inhibitory concentrations (MIC) was determined by the plate method disclosed in "Chemotherapy" (Japan), Vol. 16, (1968), pages 98 - 99. The culture medium used was a Heart infusion agar (pH 7.4). The number of the cells per plate used in the inoculum as 10^4 (10^6 cells/ml).
(§3) MIC was determined in the same manner as in the preceding paragraph (1).

Shigella sonnei = assay: MIC against clinical isolates; assay type: cell-based; details: unit assumed
Procedure: as §2, §3

Salmonella typhi = assay: MIC against clinical isolates; assay type: cell-based; details: unit assumed
Salmonella typhi-murium = assay: MIC against clinical isolates; assay type: cell-based; details: unit assumed
Proteus mirabilis = assay: MIC against clinical isolates; assay type: cell-based; details: clinical isolate, unit assumed
Proteus morganii = assay: MIC against clinical isolates; assay type: cell-based; details: clinical isolate, unit assumed
Proteus vulgaris = assay: MIC against clinical isolates; assay type: cell-based; details: clinical isolate, unit assumed
Proteus rettgeri = assay: MIC against clinical isolates; assay type: cell-based; details: clinical isolate, unit assumed
β-lactamase = assay: Resistant activity against β-lactamase, iodometric assay; assay type: biochemical, Pseudomonas aeruginosa GN 238; details: relative to Potassium Penicillin G = 100
Procedure: (3) Resistant activity against β-lactamase, Pseudomonas aergionan GN 238:
The resistant activity of each compound against β-lactamase was measured in the manner described below.
β-Lactamase was prepared from Pseudomonas aeruginosa GN 238. This microorganism was cultured in 100 ml of a medium containing 2 g of yeast extract, 10 g of polypeptone, 2 g of glucose, 7 g of disodium hydrogen phosphate, 2 g of potassium dihydrogen phosphate, 1.2 g of ammonium sulfate and 0.4 g of magnesium sulfate, per liter, in a 500-ml Erlenmeyer flask for 6 hrs. at 37° C with shaking. The resulting cells were collected by centrifugation (5,000 r.p.m. × 10 min.), washed three times with 0.1 M phosphate buffer (pH 7.0). Subsequently, the cells were subjected to sonication (20 KHz, 20 min.) and then centrifuged at 15,000 r.p.m. for 60 min. By using the supernatant of enzyme fluid, the resistance of each compound against β-lactamase was determined by the iodometric assay method. Each numeral shown in Table 7 is a relative activity value calculated by assuming as 100 the activity of the control Potassium Penicillin G.

Klebsiella pneumoniae [3] = assay: MIC against standard strain, plate method; assay type: cell-based; details: unit assumed
Summary of the method: as §1

[4] = clinical isolate GN (number not given; Table 5-3)

Compound: CN1CCN(C(=O)N[C@@H](C(=O)N[C@@H]2C(=O)N3[C@@H]2SC(C)(C)[C@@H]3C(=O)O)c2ccccc2)C(=O)C1=O (single isomer, unassigned) [compound 37]
- MIC (Escherichia coli NIHJ): < 1.57 µg/mL
- MIC (Proteus vulgaris 3027): < 1.57 µg/mL
- MIC [1]: < 1.57 µg/mL
- MIC (Staphylococcus aureus; clinical isolate F-2): 1.57 µg/mL (≈ 3.12 µM)
- MIC (Staphylococcus aureus; clinical isolate F-5): > 200 µg/mL
- MIC (Staphylococcus aureus; clinical isolate MS 8619): 0.79 µg/mL (≈ 1.57 µM)
- MIC (Escherichia coli; clinical isolate GN 3465): 200 µg/mL (≈ 397 µM)
- MIC (Escherichia coli; clinical isolate GN 3611): > 200 µg/mL
- MIC (Escherichia coli; clinical isolate K-3): > 200 µg/mL
- MIC (Pseudomonas aeruginosa; clinical isolate GN 383): 25 µg/mL (≈ 49.6 µM)
- MIC (Pseudomonas aeruginosa; clinical isolate GN 1035): 50 µg/mL (≈ 99.3 µM)
- MIC (Pseudomonas aeruginosa; clinical isolate GN 2565): 25 µg/mL (≈ 49.6 µM)
- MIC (Pseudomonas aeruginosa; clinical isolate GN 2987): 25 µg/mL (≈ 49.6 µM)
- MIC (Pseudomonas aeruginosa; [4]): 50 µg/mL (≈ 99.3 µM)
- MIC (Pseudomonas aeruginosa; clinical isolate S-1): 200 µg/mL (≈ 397 µM)
- MIC (Pseudomonas aeruginosa; clinical isolate S-2): 25 µg/mL (≈ 49.6 µM)
- MIC (Pseudomonas aeruginosa; clinical isolate S-3): 50 µg/mL (≈ 99.3 µM)
- MIC (Pseudomonas aeruginosa; clinical isolate S-4): 100 µg/mL (≈ 199 µM)
- MIC (Klebsiella pneumoniae [2]; clinical isolate GN 3850): 25 µg/mL (≈ 49.6 µM)
- MIC (Klebsiella pneumoniae [2]; clinical isolate GN 4081): 200 µg/mL (≈ 397 µM)
- MIC (Klebsiella pneumoniae [2]; clinical isolate GN 4117): 100 µg/mL (≈ 199 µM)
- MIC (Shigella flexneri; clinical isolate JS 11215): > 200 µg/mL
- MIC (Shigella sonnei; clinical isolate JS 11232): 100 µg/mL (≈ 199 µM)
- MIC (Salmonella typhi; clinical isolate SL 819): 6.25 µg/mL (≈ 12.4 µM)
- MIC (Salmonella typhi; clinical isolate SL 2169): 3.13 µg/mL (≈ 6.22 µM)
- MIC (Salmonella typhi-murium; clinical isolate SL 858): 12.5 µg/mL (≈ 24.8 µM)
- MIC (Salmonella typhi-murium; clinical isolate SL 2136): > 200 µg/mL
- MIC (Proteus mirabilis): 0.79 µg/mL (≈ 1.57 µM)
- MIC (Proteus morganii): 0.79 µg/mL (≈ 1.57 µM)
- MIC (Proteus vulgaris): < 0.4 µg/mL
- MIC (Proteus rettgeri): 25 µg/mL (≈ 49.6 µM)
- Relative activity (β-lactamase): 15%

Compound: CCN1CCN(C(=O)N[C@@H](C(=O)N[C@@H]2C(=O)N3[C@@H]2SC(C)(C)[C@@H]3C(=O)O)c2ccccc2)C(=O)C1=O [compound 36]
- MIC (Escherichia coli NIHJ): < 1.57 µg/mL
- MIC (Klebsiella pneumoniae [3]): < 1.57 µg/mL
- MIC (Proteus vulgaris 3027): < 1.57 µg/mL
- MIC [1]: < 1.57 µg/mL
- MIC (Staphylococcus aureus; clinical isolate F-1): 12.5 µg/mL (≈ 24.2 µM)
- MIC (Staphylococcus aureus; clinical isolate F-2): 3.13 µg/mL (≈ 6.05 µM)
- MIC (Staphylococcus aureus; clinical isolate F-5): > 200 µg/mL
- MIC (Staphylococcus aureus; clinical isolate MS 8588): 3.13 µg/mL (≈ 6.05 µM)
- MIC (Staphylococcus aureus; clinical isolate MS 8596): 3.13 µg/mL (≈ 6.05 µM)
- MIC (Staphylococcus aureus; clinical isolate MS 8619): 0.79 µg/mL (≈ 1.53 µM)
- MIC (Staphylococcus aureus; clinical isolate MS 8684): 3.13 µg/mL (≈ 6.05 µM)
- MIC (Escherichia coli; clinical isolate GN 3452): 3.13 µg/mL (≈ 6.05 µM)
- MIC (Escherichia coli; clinical isolate GN 3465): 100 µg/mL (≈ 193 µM)
- MIC (Escherichia coli; clinical isolate GN 3481): 3.13 µg/mL (≈ 6.05 µM)
- MIC (Escherichia coli; clinical isolate GN 3611): > 200 µg/mL
- MIC (Escherichia coli; clinical isolate K-1): 3.13 µg/mL (≈ 6.05 µM)
- MIC (Escherichia coli; clinical isolate K-2): 3.13 µg/mL (≈ 6.05 µM)
- MIC (Escherichia coli; clinical isolate K-3): > 200 µg/mL
- MIC (Pseudomonas aeruginosa; clinical isolate GN 221): 3.13 µg/mL (≈ 6.05 µM)
- MIC (Pseudomonas aeruginosa; clinical isolate GN 1035): 25 µg/mL (≈ 48.3 µM)
- MIC (Pseudomonas aeruginosa; clinical isolate GN 2565): 25 µg/mL (≈ 48.3 µM)
- MIC (Pseudomonas aeruginosa; clinical isolate GN 2987): 12.5 µg/mL (≈ 24.2 µM)
- MIC (Pseudomonas aeruginosa; [4]): 12.5 µg/mL (≈ 24.2 µM)
- MIC (Pseudomonas aeruginosa; clinical isolate S-1): 50 µg/mL (≈ 96.6 µM)
- MIC (Pseudomonas aeruginosa; clinical isolate S-2): 12.5 µg/mL (≈ 24.2 µM)
- MIC (Pseudomonas aeruginosa; clinical isolate S-3): 25 µg/mL (≈ 48.3 µM)
- MIC (Pseudomonas aeruginosa; clinical isolate S-4): 50 µg/mL (≈ 96.6 µM)
- MIC (Klebsiella pneumoniae [2]; clinical isolate GN 3850): 12.5 µg/mL (≈ 24.2 µM)
- MIC (Klebsiella pneumoniae [2]; clinical isolate GN 4081): 100 µg/mL (≈ 193 µM)
- MIC (Klebsiella pneumoniae [2]; clinical isolate GN 4117): 100 µg/mL (≈ 193 µM)
- MIC (Shigella flexneri; clinical isolate JS 11215): 100 µg/mL (≈ 193 µM)
- MIC (Shigella flexneri; clinical isolate JS 11839): 3.13 µg/mL (≈ 6.05 µM)
- MIC (Shigella sonnei; clinical isolate JS 11232): 50 µg/mL (≈ 96.6 µM)
- MIC (Shigella sonnei; clinical isolate JS 11755): 3.13 µg/mL (≈ 6.05 µM)
- MIC (Salmonella typhi; clinical isolate SL 819): 1.57 µg/mL (≈ 3.03 µM)
- MIC (Salmonella typhi; clinical isolate SL 2169): 1.57 µg/mL (≈ 3.03 µM)
- MIC (Salmonella typhi-murium; clinical isolate SL 858): 6.25 µg/mL (≈ 12.1 µM)
- MIC (Salmonella typhi-murium; clinical isolate SL 2136): > 200 µg/mL
- MIC (Proteus mirabilis): < 0.4 µg/mL
- MIC (Proteus morganii): < 0.4 µg/mL
- MIC (Proteus vulgaris): < 0.4 µg/mL
- MIC (Proteus rettgeri): 12.5 µg/mL (≈ 24.2 µM)
- Relative activity (β-lactamase): 14%
